Measurements as given in patent US12497393B2, “β-lactam compound, use thereof and preparation method therefor” (priority 2020, dated 2025).
Values after ≈ are worked out from the molar mass of the structure shown. Where two headings read alike, the source gives them in different places.

Tests used:
Experiment in all cases: Antibacterial activity MIC assay (two-fold dilution agar plating)
Format in all cases: cell-based
Escherichia coli = settings: for MIC: Escherichia coli, read-out: Minimal Inhibitory Concentration (MIC)
Outline: (§1)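 Two-fold agar dilution per CLSI/NCCLS, multipoint-inoculated, with ATCC or Chinese clinical isolates grown in Mueller-Hinton broth and Brain Heart Infusion. Drug range 128.0 down to 0.03 μg/mL in casein peptone broth; plates held 18 hours at 35 °C. MIC taken as lowest concentration showing no growth.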

Enterobacter aerogenes = Enterobacter aerogenes ATCC 13048
Outline: as §1

Citrobacter freundii = Citrobacter freundii ATCC 43864
Outline: as §1

Proteus mirabilis = tested on: Proteus mirabilis
Outline: as §1

Providencia rettgeri = tested on: Providencia rettgeri
Outline: as §1

Serratia marcescens = Serratia marcescens ATCC 21074
Outline: as §1

Pseudomonas aeruginosa = settings: for MIC: read-out: Minimal Inhibitory Concentration (MIC)
Outline: as §1

[1] = tested on: Stenotrophomonas maltophilia; settings: Stenotrophomonas maltophilia ATCC 13636
Outline: as §1

Shigella flexneri = Shigella flexneri ATCC 12022
Outline: as §1

Acinetobacter baumannii = settings: for MIC: Acinetobacter baumannii, read-out: Minimal Inhibitory Concentration (MIC)
Outline: as §1

Enterobacter cloacae = settings: for MIC: read-out: Minimal Inhibitory Concentration (MIC)
Outline: as §1

Salmonella typhi = tested on: Salmonella typhi
Outline: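 MIC = lowest drug concentration with no visible growth after 18 h at 35 °C. Agar two-fold dilution (CLSI/NCCLS), 0.03–128.0 μg/mL; ATCC and clinical strains.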

Klebsiella Pneumoniae = settings: for MIC: Klebsiella pneumoniae, read-out: Minimal Inhibitory Concentration (MIC)
Outline: as §1

Proteus vulgaris = tested on: Proteus vulgaris
Outline: as §1

[2] = Escherichia coli 08-85, mcr-1(+)
[3] = Escherichia coli 13-43, mcr-1(+)
[4] = Escherichia coli 13-66, mcr-1(+)
[5] = Escherichia coli 16-1, ESBLs(+)
[6] = Escherichia coli 16-7, ESBLs(−)
[7] = Escherichia coli CDC1001728, NDM-1(+)
[8] = Enterobacter cloacae CDC1000654
[9] = Klebsiella Pneumoniae 09-20, mcr-1(+)
[10] = Klebsiella Pneumoniae 16-2, ESBLs(−)
[11] = Klebsiella Pneumoniae 16-14, ESBLs(+)

C#CCON=C(C(=O)NC1C(=O)N(OS(=O)(=O)O)C1(C)C)c1csc(N)n1 (stereo not shown) [Compound B-2]
Minimal Inhibitory Concentration (MIC) (Escherichia coli; [2]): 0.5 µg/mL | Minimal Inhibitory Concentration (MIC) (Escherichia coli; [3]): 1 µg/mL | Minimal Inhibitory Concentration (MIC) (Escherichia coli; [4]): 1 µg/mL | Minimal Inhibitory Concentration (MIC) (Escherichia coli; [5]): 0.25 µg/mL | Minimal Inhibitory Concentration (MIC) (Escherichia coli; [6]): 0.5 µg/mL | Minimal Inhibitory Concentration (MIC) (Escherichia coli; Escherichia coli ATCC 25922, ESBLs(−)): 0.5 µg/mL | Minimal Inhibitory Concentration (MIC) (Escherichia coli; Escherichia coli ATCC 35218, ESBLs(+)): 0.25 µg/mL | Minimal Inhibitory Concentration (MIC) (Escherichia coli; [7]): 4 µg/mL | Minimal Inhibitory Concentration (MIC) (Enterobacter aerogenes): 1 µg/mL | Minimal Inhibitory Concentration (MIC) (Citrobacter freundii): 0.5 µg/mL | Minimal Inhibitory Concentration (MIC) (Proteus mirabilis; Proteus mirabilis ATCC 49565): 0.06 µg/mL | Minimal Inhibitory Concentration (MIC) (Providencia rettgeri; Providencia rettgeri ATCC 31052): ≤0.03 µg/mL | Minimal Inhibitory Concentration (MIC) (Serratia marcescens): 0.5 µg/mL | Minimal Inhibitory Concentration (MIC) (Pseudomonas aeruginosa; Pseudomonas aeruginosa 16-11): >64 µg/mL | Minimal Inhibitory Concentration (MIC) (Pseudomonas aeruginosa; Pseudomonas aeruginosa ATCC 27853): >64 µg/mL | Minimal Inhibitory Concentration (MIC) (Pseudomonas aeruginosa; Pseudomonas aeruginosa PAO1): 32 µg/mL | Minimal Inhibitory Concentration (MIC) [1]: 32 µg/mL | Minimal Inhibitory Concentration (MIC) (Shigella flexneri): 0.5 µg/mL | Minimal Inhibitory Concentration (MIC) (Acinetobacter baumannii; Acinetobacter baumannii 16-16): 32 µg/mL | Minimal Inhibitory Concentration (MIC) (Acinetobacter baumannii; Acinetobacter baumannii 16-33): 4 µg/mL | Minimal Inhibitory Concentration (MIC) (Acinetobacter baumannii; Acinetobacter baumannii ATCC 19606): 4 µg/mL | Minimal Inhibitory Concentration (MIC) (Enterobacter cloacae; Enterobacter cloacae ATCC 43560): 0.5 µg/mL | Minimal Inhibitory Concentration (MIC) (Enterobacter cloacae; [8]): 8 µg/mL | Minimal Inhibitory Concentration (MIC) (Salmonella typhi; Salmonella typhi H901): 0.5 µg/mL | Minimal Inhibitory Concentration (MIC) (Klebsiella Pneumoniae; [9]): 1 µg/mL | Minimal Inhibitory Concentration (MIC) (Klebsiella Pneumoniae; [10]): 0.5 µg/mL | Minimal Inhibitory Concentration (MIC) (Klebsiella Pneumoniae; [11]): 1 µg/mL | Minimal Inhibitory Concentration (MIC) (Klebsiella Pneumoniae; Klebsiella Pneumoniae ATCC 700603, ESBLs(+)): 16 µg/mL | Minimal Inhibitory Concentration (MIC) (Klebsiella Pneumoniae; Klebsiella Pneumoniae ATCC BAA-2146, NDM-1(+)): 8 µg/mL | Minimal Inhibitory Concentration (MIC) (Proteus vulgaris; Proteus vulgaris ATCC 29905): ≤0.03 µg/mL

C[C@H]1COc2c(N3CCN(C)CC3)c(F)cc3c(=O)c(C(=O)O)cn1c23 [Levofloxacin, levofloxacin, reference compound]
MIC (Escherichia coli; ATCC25922, Escherichia coli ATCC 25922, ESBLs(−)): ≤ 0.03 µg/mL | MIC (Escherichia coli; ATCC35218, Escherichia coli ATCC 35218, ESBLs(+)): ≤ 0.03 µg/mL | MIC (Escherichia coli; [2]): 16 µg/mL (≈ 44.3 µM) | MIC (Escherichia coli; [3]): 32 µg/mL (≈ 88.6 µM) | MIC (Escherichia coli; [4]): 32 µg/mL (≈ 88.6 µM) | MIC (Escherichia coli; [5]): 0.5 µg/mL (≈ 1.38 µM) | MIC (Escherichia coli; [6]): 0.5 µg/mL (≈ 1.38 µM) | MIC (Escherichia coli; Escherichia coli 17-R28, CRE, NDM-1(+)): 8 µg/mL (≈ 22.1 µM) | MIC (Escherichia coli; [7]): 8 µg/mL (≈ 22.1 µM) | MIC (Enterobacter aerogenes; Klebsiella aerogenes, ATCC13048, read-out: Minimal Inhibitory Concentration (MIC)): 0.06 µg/mL (≈ 0.166 µM) | MIC (Citrobacter freundii; ATCC43864, read-out: Minimal Inhibitory Concentration (MIC)): ≤ 0.03 µg/mL | MIC (Proteus mirabilis; Proteus mirabilis, ATCC49565, Proteus mirabilis ATCC 49565, read-out: Minimal Inhibitory Concentration (MIC)): ≤ 0.03 µg/mL | MIC (Providencia rettgeri; Providencia rettgeri, ATCC31052, Providencia rettgeri ATCC 31052, read-out: Minimal Inhibitory Concentration (MIC)): ≤ 0.03 µg/mL | MIC (Serratia marcescens; ATCC21074, read-out: Minimal Inhibitory Concentration (MIC)): 0.12 µg/mL (≈ 0.332 µM) | MIC (Pseudomonas aeruginosa; ATCC27853, Pseudomonas aeruginosa ATCC 27853): 1 µg/mL (≈ 2.77 µM) | MIC (Pseudomonas aeruginosa; Pseudomonas aeruginosa 16-11): 0.5 µg/mL (≈ 1.38 µM) | MIC (Pseudomonas aeruginosa; Pseudomonas aeruginosa PAO1): 4 µg/mL (≈ 11.1 µM) | MIC ([1]; ATCC13636, read-out: Minimal Inhibitory Concentration (MIC)): 2 µg/mL (≈ 5.53 µM) | MIC (Shigella flexneri; ATCC12022, read-out: Minimal Inhibitory Concentration (MIC)): 0.06 µg/mL (≈ 0.166 µM) | MIC (Acinetobacter baumannii; ATCC19606, Acinetobacter baumannii ATCC 19606): 0.25 µg/mL (≈ 0.692 µM) | MIC (Acinetobacter baumannii; Acinetobacter baumannii 16-16): 16 µg/mL (≈ 44.3 µM) | MIC (Acinetobacter baumannii; Acinetobacter baumannii 16-33): 2 µg/mL (≈ 5.53 µM) | MIC (Enterobacter cloacae; ATCC43560, Enterobacter cloacae ATCC 43560): ≤ 0.03 µg/mL | MIC (Enterobacter cloacae; [8]): 32 µg/mL (≈ 88.6 µM) | MIC (Salmonella typhi; Salmonella enterica, TYPHI, read-out: Minimal Inhibitory Concentration (MIC)): ≤ 0.03 µg/mL | MIC (Klebsiella Pneumoniae; ATCC700603, Klebsiella Pneumoniae ATCC 700603, ESBLs(+)): 0.5 µg/mL (≈ 1.38 µM) | MIC (Klebsiella Pneumoniae; ATCCBAA2146, Klebsiella Pneumoniae ATCC BAA-2146, NDM-1(+)): 128 µg/mL (≈ 354 µM) | MIC (Klebsiella Pneumoniae; [9]): 16 µg/mL (≈ 44.3 µM) | MIC (Klebsiella Pneumoniae; [10]): 0.06 µg/mL (≈ 0.166 µM) | MIC (Klebsiella Pneumoniae; [11]): 0.5 µg/mL (≈ 1.38 µM) | MIC (Proteus vulgaris; Proteus vulgaris, ATCC29905, Proteus vulgaris ATCC 29905, read-out: Minimal Inhibitory Concentration (MIC)): ≤ 0.03 µg/mL
